This is an account of results in patent US20160279042A1, “Dental Anti-Hypersensitivity Composition and Method” (The Research Foundation for the State University of New York, priority 1999, published 2016).

SMILES strings stand for the structures.

Assay [1] is described as follows: Hydraulic conductance of dentine discs (Greenhill and Pashley device), simulation of dentinal tubule plugging. To be noted: for Hydraulic conductance, effect in words: summary of Table 1. From the text:
A device developed by Greenhill and Pashley (J. Dental Research, 60:686-698, 1981) that enables simulation of dentinal tubule plugging in vivo was used to assess the effectiveness of the invention. Dentine discs that varied in thickness from 0.6 to 0.8 mm were cut with a Buhler Isomet saw from extracted caries-free molar teeth. They were then etched with 6% citric acid for two minutes to remove the smear layer and stored in 70% ethanol until used. A disc was mounted in the chamber of the apparatus with occlusal side facing upwards. The occlusal side is determined by passing light through a plastic grid beneath the section and observing the section with a dissecting microscope. The tubules appear further apart with the occlusal side up because of the lower tubular density of the dentine occlusally (Walton et al., J. Dental Research 55:639-642, 1976). Hydraulic conductance of fluid through the discs was determined as described by Greenhill and Pashley, supra.
Fluid containing levels of ions present in serum (Merck Manual, 1972) was used to perfuse the disc. Their concentrations in mM were as follows: Na-140.5, K-4.31, Ca-2.5, Mg-1.0, P-1.3. The pH of this solution is raised to 7.0 with sodium hydroxide. The solution was filtered through a […] (Millipore Corp., Marlborough, Mass. 01752) prior to use to remove any bacteria present. This solution is called artificial ionic dentinal fluid (AIDF). Hydrostatic pressure was created by a fluid reservoir leading via a glass capillary tube into the pulpal side of the chamber at a level 30 cm above that of the surface of the horizontally positioned disc. The distance traveled by an air bubble positioned in the AIDF in the capillary tubing between this pressure head and the pulpal side of the disc in a fixed period of time was converted to hydraulic conductance values in ml cm^−1 min^−1 cm H20^−1.
First, […] of AIDF was applied to the upward facing occlusal side of the section and AIDF was allowed to flow through the disc from the pulpal side for a period of five minutes. The distance that the air bubble moved inside the capillary on the pulpal side of the chamber was measured so that the rate of fluid movement through the disc could be calculated and converted to hydraulic conductance values. This procedure was repeated two more times or until a uniform flow rate was achieved on three consecutive runs. […] Next, the mixture was removed with a pipette, washed three times with 400 μl of deionized water and replaced with AIDF. The AIDF was allowed to flow through the dentine slice and hydraulic conductance readings were made at selected times up to 90 minutes.

Assay [2] is described as follows: Titration of artificial dentinal fluid, aggregation measured by absorbance. Format: physicochemical. The conditions noted are these: pH of 8.5 and above. On the procedure:
In order to determine the conditions that promote intrinsic plug formation, we performed the following experiments. We prepared a solution comprised of the ions present in dentinal fluid (which acted as artificial dentinal fluid) and progressively added (titrated) various solutions thereto to determine the conditions and substances conducive to the formation of aggregates (i.e., dentinal plugs). Aggregation was determined by means of measurement of the absorbance with a spectrophotometer.

For the compound `O=C([O-])O.[Na+]` [sodium bicarbonate], the “Percent Reduction in Hydraulic Conductance” value (from here on “Percent Reduction”) in assay [1] (0 minutes after exposure) is 0%; in assay [1] (15 minutes after exposure) it was −10.6%; in assay [1] (30 minutes after exposure) it was −1.0%; in assay [1] (45 minutes after exposure), 7.2%; in assay [1] (60 minutes after exposure) it was 11.5%; in assay [1] (75 minutes after exposure) it was 15.9%. The “Percent Reduction” value in assay [1] (90 minutes after exposure) was 19.7%. In assay [2], the “Aggregation (deposit formation) of dentinal fluid constituents” value (from here on “Aggregation (deposit formation)”) is recorded as “nor could one induce deposition”.

Regarding `O=C([O-])[O-].[Ca+2]` [calcium carbonate], the “Percent Reduction” value in assay [1] (0 minutes after exposure) is 0%; in assay [1] (15 minutes after exposure), −18.5%; in assay [1] (30 minutes after exposure), −12.3%; in assay [1] (45 minutes after exposure) it was −5.5%; in assay [1] (60 minutes after exposure), −4.1%; in assay [1] (75 minutes after exposure), 5.5%. Moreover, in assay [1] (90 minutes after exposure), the “Percent Reduction” value is reported as 5.5%. In addition, the “Hydraulic conductance, effect in words” value in assay [1] is “much smaller effects”. Besides, the “Aggregation (deposit formation)” value in assay [2] is “not sufficient to produce deposit formation”.

As to `[Na+].[OH-]` [sodium hydroxide], in assay [2], the “Aggregation (deposit formation)” value is on record as “nor could one induce deposition”.

As to `N=C(N)NCCC[C@H](N)C(=O)O.O=C(O)O` [arginine bicarbonate], the “Percent Reduction” value in assay [1] (0 minutes after exposure) was 0%; in assay [1] (15 minutes after exposure), 11.7%; in assay [1] (30 minutes after exposure) it was 15.6%; in assay [1] (45 minutes after exposure), 14.4%; in assay [1] (60 minutes after exposure) it was 14.5%; in assay [1] (75 minutes after exposure), 16.1%. Further, the “Percent Reduction” value in assay [1] (90 minutes after exposure) was 16.1%. Moreover, the “Hydraulic conductance, effect in words” value in assay [1] is listed as “much smaller effects”. The “Aggregation (deposit formation)” value in assay [2] was “aggregation of dentinal fluid constituents occurred”.
